# Measurements published in patent US12594276B2, “Inhibitors of human immunodeficiency virus replication” (ViiV Healthcare UK (No.5) Limited, priority 2024, dated 2026).
# Columns and labels:
# [1] = Compound cytotoxicity, XTT-based colorimetric assay; type: cell-based; conditions: human; uninfected MT2 cells, day 4, XTT; read-out: CC50
# In short: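 Follows the antiviral assay procedure, but with uninfected MT2 cells. On day 4, cell viability is measured by XTT-based colorimetry, giving CC50 values.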
# [2] = tested on: recombinant NL4-3 virus (nef section replaced with Renilla luciferase gene) in MT-2 cells; test: HIV cell culture assay (antiviral activity, luciferase readout); type: cell-based; conditions: Renilla, NL43, MT-2 cells infected for 4-5 days with recombinant NL4-3 Renilla luciferase virus
# In short: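 The reporter virus was produced by transfecting 293T cells with the NL4-3 nef/Renilla luciferase proviral clone. MT-2 cells were infected for 4–5 days with serial compound dilutions present. Luciferase was read with a live-cell substrate, and EC50 came from the exponential median-effect equation.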
SMILES,CC50 at 4 days [1] [nM],EC50 [2] [nM]
"COCCNc1cc(C2CCC(F)(F)CC2)nc2nc([C@H](Cc3cc(F)cc(F)c3)NC(=O)Cn3nc(C(F)F)c4c3C(F)(F)[C@@H]3C[C@H]43)n(-c3ccc(Cl)c4c(NS(C)(=O)=O)nn(CCOC)c34)c(=O)c12 (atropisomer, axis not shown; (P)) [Example 134, N-[(1S)-1-[(3P)-3-[4-chloro-3-methanesulfonamido-1-(2-methoxyethyl)-1H-indazol-7-yl]-7-(4,4-difluorocyclohexyl)-5-[(2-methoxyethyl)amino]-4-oxo-3H,4H-pyrido[2,3-d]pyrimidin-2-yl]-2-(3,5-difluorophenyl)ethyl]-2-[(2S,4R)-9-(difluoromethyl)-5,5-difluoro-7,8-diazatricyclo[4.3.0.0^2,^4]nona-1(6),8-dien-7-yl]acetamide]",> 50,0.022
"COCCCn1nc(NS(C)(=O)=O)c2c(Cl)ccc(-n3c([C@H](Cc4cc(F)cc(F)c4)NC(=O)Cn4nc(C(F)F)c5c4C(F)(F)[C@@H]4C[C@H]54)nc4nc(C5CCC(F)(F)CC5)cc(NCCOC)c4c3=O)c21 (atropisomer, axis not shown; (P)) [Example 135, N-[(1S)-1-[(3P)-3-[4-chloro-3-methanesulfonamido-1-(3-methoxypropyl)-1H-indazol-7-yl]-7-(4,4-difluorocyclohexyl)-5-[(2-methoxyethyl)amino]-4-oxo-3H,4H-pyrido[2,3-d]pyrimidin-2-yl]-2-(3,5-difluorophenyl)ethyl]-2-[(2S,4R)-9-(difluoromethyl)-5,5-difluoro-7,8-diazatricyclo[4.3.0.0^2,4]nona-1(6),8-dien-7-yl]acetamide]",> 50,0.013
"CS(=O)(=O)Nc1nn(CCN2CCC(F)(F)CC2)c2c(-n3c([C@H](Cc4cc(F)cc(F)c4)NC(=O)Cn4nc(C(F)F)c5c4C(F)(F)[C@@H]4C[C@H]54)nc4nc(C5CCC(F)(F)CC5)cc(C(F)F)c4c3=O)ccc(Cl)c12 (atropisomer, axis not shown; (P)) [Example 149, N-[(1S)-1-[(3P)-3-{4-chloro-1-[2-(4,4-difluoropiperidin-1-yl)ethyl]-3-methanesulfonamido-1H-indazol-7-yl}-7-(4,4-difluorocyclohexyl)-5-(difluoromethyl)-4-oxo-3H,4H-pyrido[2,3-d]pyrimidin-2-yl]-2-(3,5-difluorophenyl)ethyl]-2-[(2S,4R)-9-(difluoromethyl)-5,5-difluoro-7,8-diazatricyclo[4.3.0.0^2,^4]nona-1(6),8-dien-7-yl]acetamide]",> 50,0.018
"CCOCCn1nc(NS(C)(=O)=O)c2c(Cl)ccc(-n3c([C@H](Cc4cc(F)cc(F)c4)NC(=O)Cn4nc(C(F)F)c5c4C(F)(F)[C@@H]4C[C@H]54)nc4nc(C5CCC(F)(F)CC5)cc(C(F)F)c4c3=O)c21 (atropisomer, axis not shown; (P)) [Example 150, N-[(1S)-1-[(3P)-3-[4-chloro-1-(2-ethoxyethyl)-3-methanesulfonamido-1H-indazol-7-yl]-7-(4,4-difluorocyclohexyl)-5-(difluoromethyl)-4-oxo-3H,4H-pyrido[2,3-d]pyrimidin-2-yl]-2-(3,5-difluorophenyl)ethyl]-2-[(2S,4R)-9-(difluoromethyl)-5,5-difluoro-7,8-diazatricyclo[4.3.0.0^2,^4]nona-1(6),8-dien-7-yl]acetamide]",> 50,0.017
